In the test the target is T1, acetohydroxyacid synthase (AHAS) (Arabidopsis thaliana, UniProt P17597).
T1 construct: gene ALS; wild-type
T1 sequence (P17597 56-670): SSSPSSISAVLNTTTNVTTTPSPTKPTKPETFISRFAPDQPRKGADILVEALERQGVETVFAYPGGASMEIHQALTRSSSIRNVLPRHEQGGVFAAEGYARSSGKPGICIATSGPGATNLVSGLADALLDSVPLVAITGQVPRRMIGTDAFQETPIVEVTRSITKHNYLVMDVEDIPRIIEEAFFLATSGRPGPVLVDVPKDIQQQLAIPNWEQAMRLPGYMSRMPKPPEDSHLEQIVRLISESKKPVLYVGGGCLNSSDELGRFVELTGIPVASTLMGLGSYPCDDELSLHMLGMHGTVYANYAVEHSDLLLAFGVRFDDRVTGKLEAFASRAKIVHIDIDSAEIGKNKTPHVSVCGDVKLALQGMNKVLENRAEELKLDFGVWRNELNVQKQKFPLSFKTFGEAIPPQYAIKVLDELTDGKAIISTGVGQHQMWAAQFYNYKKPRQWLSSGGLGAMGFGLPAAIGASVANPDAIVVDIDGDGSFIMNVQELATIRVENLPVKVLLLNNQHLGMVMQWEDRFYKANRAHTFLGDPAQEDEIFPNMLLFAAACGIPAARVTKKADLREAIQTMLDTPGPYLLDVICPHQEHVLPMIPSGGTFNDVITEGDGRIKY
The test is described as follows: purified AtAHAS colorimetric activity assay ([…] nm). It counts as biochemical.
The term IC50 denotes the concentration that gives 50% inhibition. A low value points to inhibition by little substance. `COc1cc(OC)nc(Oc2ccccc2CNc2ccc(-c3ccccc3)cc2)n1` [IIIa] yielded an IC50 of 343 µM. `COc1cc(OC)nc(Oc2ccccc2CNc2cccc(-c3ccccc3)c2)n1` [IIa]: inhibition was half-maximal at 189 µM (IC50). As for `COc1cc(OC)nc(Oc2ccccc2CNc2ccccc2-c2ccccc2)n1` [Ia], the IC50 turned out to be 157 µM. This IC50 and that of the molecule before are within 1.5-fold of each other. Molecule `COc1cc(OC)nc(Oc2ccccc2CNc2ccccc2)n1` [PBA] yielded an IC50 of 593 µM.

The values above are taken from publication PMC11173721, “Discovery of a New Class of Lipophilic Pyrimidine-Biphenyl Herbicides Using an Integrated Experimental-Computational Approach” (Molecules, 2024).
